This passage reports IC50 results from patent publication US7601716B2, “Pyridopyrazines and derivatives thereof as ALK and c-Met inhibitors” (Cephalon, Inc., priority 2006, dated 2009).

The test addresses baculovirus-expressed ALK (Homo sapiens, UniProt Q9UM73). As to the kind of experiment: ALK Kinase Assay (ELISA/TRF, PLC-γ substrate). Also: 1 µM ATP (Km level). To be noted: read-out: ALK Kinase Inhibition (IC50). Format: biochemical. The procedure:
Example compounds were tested for their ability to inhibit the kinase activity of baculovirus-expressed ALK using a modification of the ELISA protocol reported for trkA in Angeles, T. S. et al., Anal. Biochem. 1996, 236, 49-55, which is incorporated herein by reference in its entirety. Phosphorylation of the substrate, phospholipase C-gamma (PLC-γ) generated as a fusion protein with glutathione S-transferase (GST) as reported in Rotin, D. et al., EMBO J. 1992, 11, 559-567, which is incorporated herein by reference in its entirety, was detected with a europium-labeled anti-phosphotyrosine antibody and measured by time-resolved fluorescence (TRF). Briefly, each 96-well plate was coated with 100 μL/well of 10 μg/mL substrate (phospholipase C-γ) in Tris-buffered saline (TBS). […] The reaction was initiated by adding enzyme (30 ng/ml ALK) and was allowed to proceed at 37° C. for 15 minutes. Detection of the phosphorylated product was performed by adding 100 μl/well of Eu-N1 labeled PT66 antibody (Perkin Elmer # AD0041). Incubation at 37° C. then proceeded for one (1) hour, followed by addition of 100 μL enhancement solution (Wallac #1244-105). The plate was gently agitated and after thirty minutes, the fluorescence of the resulting solution was measured using the EnVision 2100 (or 2102) multilabel plate reader (Perkin Elmer).
Data analysis was performed using ActivityBase (IDBS, Guilford, UK). IC50 values were calculated by plotting percent inhibition versus log10 of the concentration of compound and fitting to the nonlinear regression sigmoidal dose-response (variable slope) equation in XLFit (IDBS, Guilford, UK).
On the technique in general: In an ELISA, binding on a coated surface is turned into a signal by an enzyme label.

Each structure is given as a SMILES string.

Sequence of baculovirus-expressed ALK (Q9UM73 19-1620): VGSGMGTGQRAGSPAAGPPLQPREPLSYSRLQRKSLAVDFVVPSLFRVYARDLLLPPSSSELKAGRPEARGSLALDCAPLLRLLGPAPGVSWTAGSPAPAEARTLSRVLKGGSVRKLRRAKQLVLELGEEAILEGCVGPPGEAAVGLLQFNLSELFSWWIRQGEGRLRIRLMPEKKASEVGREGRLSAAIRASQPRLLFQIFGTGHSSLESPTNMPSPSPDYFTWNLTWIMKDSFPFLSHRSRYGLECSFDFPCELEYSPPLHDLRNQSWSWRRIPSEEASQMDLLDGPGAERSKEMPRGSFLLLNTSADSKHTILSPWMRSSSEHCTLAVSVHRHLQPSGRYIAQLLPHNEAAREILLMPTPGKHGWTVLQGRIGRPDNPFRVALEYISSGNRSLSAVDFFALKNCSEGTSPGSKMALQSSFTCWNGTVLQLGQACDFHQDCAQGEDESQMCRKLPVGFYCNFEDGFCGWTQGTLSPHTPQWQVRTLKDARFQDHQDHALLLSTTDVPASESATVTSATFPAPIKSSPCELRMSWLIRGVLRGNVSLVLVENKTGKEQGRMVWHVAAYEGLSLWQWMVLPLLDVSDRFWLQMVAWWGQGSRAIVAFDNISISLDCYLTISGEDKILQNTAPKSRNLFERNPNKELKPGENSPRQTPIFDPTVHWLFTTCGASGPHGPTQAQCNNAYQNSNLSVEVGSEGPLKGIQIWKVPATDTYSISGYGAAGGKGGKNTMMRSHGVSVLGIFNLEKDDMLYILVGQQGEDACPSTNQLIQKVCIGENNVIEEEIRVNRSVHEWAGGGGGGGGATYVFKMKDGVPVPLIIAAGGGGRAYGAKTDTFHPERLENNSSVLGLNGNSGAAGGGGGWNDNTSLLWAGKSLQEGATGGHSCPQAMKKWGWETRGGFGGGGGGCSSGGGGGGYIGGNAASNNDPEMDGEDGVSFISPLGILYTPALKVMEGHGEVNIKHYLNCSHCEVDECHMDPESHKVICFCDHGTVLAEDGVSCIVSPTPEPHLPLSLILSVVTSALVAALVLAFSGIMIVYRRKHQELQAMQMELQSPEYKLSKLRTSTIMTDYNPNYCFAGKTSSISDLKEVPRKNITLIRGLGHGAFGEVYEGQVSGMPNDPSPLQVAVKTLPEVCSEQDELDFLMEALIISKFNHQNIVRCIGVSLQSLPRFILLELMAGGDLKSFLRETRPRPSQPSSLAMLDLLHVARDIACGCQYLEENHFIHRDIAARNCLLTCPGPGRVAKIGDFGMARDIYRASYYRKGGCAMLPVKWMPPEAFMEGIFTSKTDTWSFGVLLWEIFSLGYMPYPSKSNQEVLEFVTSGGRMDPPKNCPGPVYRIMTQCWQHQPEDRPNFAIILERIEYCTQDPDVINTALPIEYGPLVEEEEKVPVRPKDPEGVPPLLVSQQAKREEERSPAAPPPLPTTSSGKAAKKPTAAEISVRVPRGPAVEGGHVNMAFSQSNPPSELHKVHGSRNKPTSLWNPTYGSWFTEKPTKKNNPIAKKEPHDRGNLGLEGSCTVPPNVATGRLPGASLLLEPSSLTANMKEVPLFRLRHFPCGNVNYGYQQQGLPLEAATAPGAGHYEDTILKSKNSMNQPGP

As a reminder, the IC50 is the concentration that inhibits the measured activity by half. For `O=C(c1ccc(-c2cnc3c(c2)N(Cc2cc(Cl)ccc2C(F)(F)F)CCN3)cc1)N1CCN(c2ncccn2)CC1` [Example 369, (4-{1-[5-Chloro-2-(trifluoromethyl)benzyl]-1,2,3,4-tetrahydropyrido[2,3-b]pyrazin-7-yl}phenyl)-(4-pyrimidin-2-ylpiperazin-1-yl)methanone], the 50% inhibitory concentration (IC50) fell in the range of 100 to 1000 nM. In the case of `O=C(NCC1CCCO1)c1ccc(-c2cnc3c(c2)N(Cc2cc(Cl)ccc2C(F)(F)F)CCN3)cc1` (stereo not shown) [Example 417, 4-{1-[5-Chloro-2-(trifluoromethyl)benzyl]-1,2,3,4-tetrahydropyrido[2,3-b]pyrazin-7-yl}-N-(tetrahydrofuran-2-ylmethyl)benzamide], the 50% inhibitory concentration (IC50) is 100 to 1000 nM.

On to `O=C(NCc1ccccc1Cl)c1cccc(-c2cnc3c(c2)N(Cc2cc(Cl)ccc2C(F)(F)F)CCN3)c1` [Example 348, N-(2-Chlorobenzyl)-3-{1-[5-Chloro-2-(trifluoromethyl)benzyl]-1,2,3,4-tetrahydropyrido[2,3-b]pyrazin-7-yl}benzamide], for which the IC50 lay within 100 to 1000 nM. `O=C(c1ccc(-c2cnc3c(c2)N(Cc2cc(Cl)ccc2C(F)(F)F)CCN3)cc1)N1CCN(CC2CCCCC2)CC1` [Example 428, (4-{1-[5-Chloro-2-(trifluoromethyl)benzyl]-1,2,3,4-tetrahydropyrido[2,3-b]pyrazin-7-yl}phenyl)-[4-(cyclohexylmethyl)piperazin-1-yl]methanone]: the IC50 was 1000 to 10000 nM. With `O=C(c1ccc(-c2cnc3c(c2)N(Cc2cc(Cl)ccc2C(F)(F)F)CCN3)cc1)N1CCC(n2c(=O)[nH]c3ccccc32)CC1` [Example 372, 1-[1-(4-{1-[5-Chloro-2-(trifluoromethyl)benzyl]-1,2,3,4-tetrahydropyrido[2,3-b]pyrazin-7-yl}benzoyl)piperidin-4-yl]-1,3-dihydrobenzoimidazol-2-one], the IC50 was in the range of 100 to 1000 nM. The result for `O=C(c1cccc(-c2cnc3c(c2)N(Cc2cc(Cl)ccc2C(F)(F)F)CCN3)c1)N1CCN(CCc2ccccn2)CC1` [Example 330, (3-{1-[5-Chloro-2-(trifluoromethyl)benzyl]-1,2,3,4-tetrahydropyrido[2,3-b]pyrazin-7-yl}phenyl)-[4-(2-pyridin-2-yl-ethyl)piperazin-1-yl]methanone] reads 100 to 1000 nM; that for `O=C(NCc1ccc(OC(F)(F)F)cc1)c1cccc(-c2cnc3c(c2)N(Cc2cc(Cl)ccc2C(F)(F)F)CCN3)c1` [Example 331, 3-{1-[5-Chloro-2-(trifluoromethyl)benzyl]-1,2,3,4-tetrahydropyrido[2,3-b]pyrazin-7-yl}-N-[4-(trifluoromethoxy)benzyl]benzamide], 1000 to 10000 nM. Take `CN1CCC(NC(=O)c2cccc(-c3cnc4c(c3)N(Cc3cc(Cl)ccc3C(F)(F)F)CCN4)c2)CC1` [Example 329, 3-{1-[5-Chloro-2-(trifluoromethyl)benzyl]-1,2,3,4-tetrahydropyrido[2,3-b]pyrazin-7-yl}-N-(1-methylpiperidin-4-yl)benzamide]: the IC50 is less than 100 nM. On to `COc1ccccc1CN(C)C(=O)c1cccc(-c2cnc3c(c2)N(Cc2cc(Cl)ccc2C(F)(F)F)CCN3)c1` [Example 367, 3-{1-[5-Chloro-2-(trifluoromethyl)benzyl]-1,2,3,4-tetrahydropyrido[2,3-b]pyrazin-7-yl}-N-(2-methoxybenzyl)-N-methylbenzamide], for which the 50% inhibitory concentration (IC50) was in the range of 100 to 1000 nM. The same measure for `O=C(c1cccc(-c2cnc3c(c2)N(Cc2cc(Cl)ccc2C(F)(F)F)CCN3)c1)N1CCN(c2cccc(Cl)c2)CC1` [Example 357, [4-(3-Chlorophenyl)piperazin-1-yl]-(3-{1-[5-chloro-2-(trifluoromethyl)benzyl]-1,2,3,4-tetrahydropyrido[2,3-b]pyrazin-7-yl}phenyl)methanone]: 100 to 1000 nM; for `O=C(NC1CCc2ccccc21)c1cccc(-c2cnc3c(c2)N(Cc2cc(Cl)ccc2C(F)(F)F)CCN3)c1` (stereo not shown) [Example 343, 3-{1-[5-Chloro-2-(trifluoromethyl)benzyl]-1,2,3,4-tetrahydropyrido[2,3-b]pyrazin-7-yl}-N-indan-1-ylbenzamide]: 100 to 1000 nM; for `O=C(c1ccc(-c2cnc3c(c2)N(Cc2cc(Cl)ccc2C(F)(F)F)CCN3)cc1)N1CCN(c2cccc(Cl)c2)CC1` [Example 422, [4-(3-Chlorophenyl)piperazin-1-yl]-(4-{1-[5-chloro-2-(trifluoromethyl)benzyl]-1,2,3,4-tetrahydropyrido[2,3-b]pyrazin-7-yl}phenyl)methanone]: 100 to 1000 nM. For the molecule `O=C(c1ccc(-c2cnc3c(c2)N(Cc2cc(Cl)ccc2C(F)(F)F)CCN3)cc1)N1Cc2ccccc2C1` [Example 433, (4-{1-[5-Chloro-2-(trifluoromethyl)benzyl]-1,2,3,4-tetrahydropyrido[2,3-b]pyrazin-7-yl}phenyl)-(1,3-dihydroisoindol-2-yl)methanone], the IC50 fell in the range of 100 to 1000 nM. The result for `O=C(c1ccc(-c2cnc3c(c2)N(Cc2cc(Cl)ccc2C(F)(F)F)CCN3)cc1)N1CCC2(CC1)C(=O)NCN2c1ccccc1` [Example 380, 8-(4-{1-[5-Chloro-2-(trifluoromethyl)benzyl]-1,2,3,4-tetrahydropyrido[2,3-b]pyrazin-7-yl}benzoyl)-1-phenyl-1,3,8-triaza-spiro[4.5]decan-4-one] reads 100 to 1000 nM. In the case of `CC(C)NC(=O)CN1CCN(C(=O)c2cccc(-c3cnc4c(c3)N(Cc3cc(Cl)ccc3C(F)(F)F)CCN4)c2)CC1` [Example 336, 2-[4-(3-{1-[5-Chloro-2-(trifluoromethyl)benzyl]-1,2,3,4-tetrahydropyrido[2,3-b]pyrazin-7-yl}benzoyl)piperazin-1-yl]-N-isopropylacetamide], the half-maximal inhibitory concentration (IC50) was in the range of 100 to 1000 nM. The same measure for `O=C(NCCc1ccccc1)c1ccc(-c2cnc3c(c2)N(Cc2cc(Cl)ccc2C(F)(F)F)CCN3)cc1` [Example 416, 4-{1-[5-Chloro-2-(trifluoromethyl)benzyl]-1,2,3,4-tetrahydropyrido[2,3-b]pyrazin-7-yl}-N-phenethylbenzamide]: 100 to 1000 nM; for `O=C(c1cccc(-c2cnc3c(c2)N(Cc2cc(Cl)ccc2C(F)(F)F)CCN3)c1)N1CCCC1c1cccnc1` (stereo not shown) [Example 366, (3-{1-[5-Chloro-2-(trifluoromethyl)benzyl]-1,2,3,4-tetrahydropyrido[2,3-b]pyrazin-7-yl}phenyl)-(2-pyridin-3-ylpyrrolidin-1-yl)methanone]: 100 to 1000 nM; for `O=C(NCCOc1ccccc1)c1cccc(-c2cnc3c(c2)N(Cc2cc(Cl)ccc2C(F)(F)F)CCN3)c1` [Example 355, 3-{1-[5-Chloro-2-(trifluoromethyl)benzyl]-1,2,3,4-tetrahydropyrido[2,3-b]pyrazin-7-yl}-N-(2-phenoxyethyl)benzamide]: 100 to 1000 nM. For `O=C(NC(c1ccccc1)c1ccccc1)c1ccc(-c2cnc3c(c2)N(Cc2cc(Cl)ccc2C(F)(F)F)CCN3)cc1` [Example 399, N-Benzhydryl-4-{1-[5-chloro-2-(trifluoromethyl)benzyl]-1,2,3,4-tetrahydropyrido[2,3-b]pyrazin-7-yl}benzamide], the IC50 lay within 1000 to 10000 nM.

In the case of `CCOC(=O)N1CCC(NC(=O)c2ccc(-c3cnc4c(c3)N(Cc3cc(Cl)ccc3C(F)(F)F)CCN4)cc2)CC1` [Example 389, 4-(4-{1-[5-Chloro-2-(trifluoromethyl)benzyl]-1,2,3,4-tetrahydropyrido[2,3-b]pyrazin-7-yl}benzoylamino)piperidine-1-carboxylic acid ethyl ester], the IC50 lay in the range of 100 to 1000 nM. The same measure for `O=C(NC1CCCCC1)c1cccc(-c2cnc3c(c2)N(Cc2cc(Cl)ccc2C(F)(F)F)CCN3)c1` [Example 346, 3-{1-[5-Chloro-2-(trifluoromethyl)benzyl]-1,2,3,4-tetrahydropyrido[2,3-b]pyrazin-7-yl}-N-cyclohexylbenzamide]: 100 to 1000 nM; for `O=C(c1ccc(-c2cnc3c(c2)N(Cc2cc(Cl)ccc2C(F)(F)F)CCN3)cc1)N1CCN(c2ccccc2C(F)(F)F)CC1` [Example 381, (4-{1-[5-Chloro-2-(trifluoromethyl)benzyl]-1,2,3,4-tetrahydropyrido[2,3-b]pyrazin-7-yl}phenyl)-{4-[2-(trifluoromethyl)phenyl]piperazin-1-yl}methanone]: 100 to 1000 nM; for `COc1ccccc1N1CCN(C(=O)c2ccc(-c3cnc4c(c3)N(Cc3cc(Cl)ccc3C(F)(F)F)CCN4)cc2)CC1` [Example 373, (4-{1-[5-Chloro-2-(trifluoromethyl)benzyl]-1,2,3,4-tetrahydropyrido[2,3-b]pyrazin-7-yl}phenyl)-[4-(2-methoxyphenyl)piperazin-1-yl]methanone]: 100 to 1000 nM. On to `O=C(c1cccc(-c2cnc3c(c2)N(Cc2cc(Cl)ccc2C(F)(F)F)CCN3)c1)N1CCC(c2ccccc2)CC1` [Example 313, (3-{1-[5-Chloro-2-(trifluoromethyl)benzyl]-1,2,3,4-tetrahydropyrido[2,3-b]pyrazin-7-yl}phenyl)-(4-phenylpiperidin-1-yl)methanone], for which the IC50 lay within 100 to 1000 nM. Regarding `O=C(c1ccc(-c2cnc3c(c2)N(Cc2cc(Cl)ccc2C(F)(F)F)CCN3)cc1)N1CCC(O)(c2ccc(Cl)cc2)CC1` [Example 371, [4-(4-Chlorophenyl)-4-hydroxypiperidin-1-yl]-(4-{1-[5-chloro-2-(trifluoromethyl)benzyl]-1,2,3,4-tetrahydropyrido[2,3-b]pyrazin-7-yl}phenyl)methanone], the 50% inhibitory concentration (IC50) was in the range of 100 to 1000 nM.
